The values below are quoted from earlier work in PMC6261507 (ACS applied nano materials, 2018).

In the data set the test system is integrin αvβ3.

As to “Arg-Gly-Asp [RGD, arginine-glycine-aspartic acid]”, the “affinity towards integrin αvβ3” value was “nanomolar affinity”.
